From ChEMBL document CHEMBL5108059, “Discovery of 2-Methyl-2-(4-(2-methyl-8-(1H-pyrrolo[2,3-b]pyridin-6-yl)-1H-naphtho[1,2-d]imidazol-1-yl)phenyl)propanenitrile as a Novel PI3K/mTOR Inhibitor with Enhanced Antitumor Efficacy In Vitro and In Vivo” (J Med Chem, 2022) come the findings set out here.

Experiment [1] concerns the target Serine/threonine-protein kinase mTOR (Homo sapiens, UniProt P42345). The experiment is described as follows: Inhibition of N-terminal FLAG-tagged recombinant human mTOR (1362 to end residue) using ULight-4EBP1 peptide as substrate incubated for 30 mins in presence of ATP by Lance ultra assay.
In experiment [2] the target is Phosphatidylinositol 4,5-bisphosphate 3-kinase catalytic subunit alpha isoform (Homo sapiens, UniProt P42336). In words: Inhibition of PI3Kalpha (unknown origin) using PIP2 as substrate incubated for 1 hr in presence of ATP by Kinase Glo luminescence assay.
Chain of Phosphatidylinositol 4,5-bisphosphate 3-kinase catalytic subunit alpha isoform (P42336 whole entry, canonical isoform): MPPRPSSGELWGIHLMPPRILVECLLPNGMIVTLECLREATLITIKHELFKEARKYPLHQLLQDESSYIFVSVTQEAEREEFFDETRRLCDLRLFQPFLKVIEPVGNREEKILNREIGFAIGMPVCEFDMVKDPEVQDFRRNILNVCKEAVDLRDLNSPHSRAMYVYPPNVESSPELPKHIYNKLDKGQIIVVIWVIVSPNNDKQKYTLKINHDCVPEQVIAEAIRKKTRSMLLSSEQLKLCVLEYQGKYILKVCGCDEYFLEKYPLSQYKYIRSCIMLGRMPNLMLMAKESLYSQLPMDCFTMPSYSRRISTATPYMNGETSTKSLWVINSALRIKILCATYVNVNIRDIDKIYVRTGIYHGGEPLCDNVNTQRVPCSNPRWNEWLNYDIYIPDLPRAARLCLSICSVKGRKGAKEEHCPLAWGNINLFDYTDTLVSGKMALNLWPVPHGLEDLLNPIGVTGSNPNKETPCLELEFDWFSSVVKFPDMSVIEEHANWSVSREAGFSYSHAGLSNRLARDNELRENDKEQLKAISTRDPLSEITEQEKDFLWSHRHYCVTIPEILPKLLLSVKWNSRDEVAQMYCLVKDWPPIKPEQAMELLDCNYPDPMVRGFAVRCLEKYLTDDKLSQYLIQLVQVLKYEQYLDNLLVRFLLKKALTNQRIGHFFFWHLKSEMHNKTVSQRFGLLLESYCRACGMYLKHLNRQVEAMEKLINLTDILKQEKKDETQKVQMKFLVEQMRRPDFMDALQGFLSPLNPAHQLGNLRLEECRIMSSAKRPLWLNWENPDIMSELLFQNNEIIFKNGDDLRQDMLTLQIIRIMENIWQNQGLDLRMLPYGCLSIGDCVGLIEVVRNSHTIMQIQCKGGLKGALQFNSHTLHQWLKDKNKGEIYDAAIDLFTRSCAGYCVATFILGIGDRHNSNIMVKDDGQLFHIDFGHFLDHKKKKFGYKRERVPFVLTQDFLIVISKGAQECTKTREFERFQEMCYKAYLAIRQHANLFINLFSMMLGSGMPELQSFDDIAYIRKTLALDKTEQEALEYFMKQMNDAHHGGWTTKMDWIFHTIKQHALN
The target in experiment [3] is T1, Phosphatidylinositol 4,5-bisphosphate 3-kinase catalytic subunit delta isoform (Homo sapiens, UniProt O00329).
T1 sequence (O00329 whole entry): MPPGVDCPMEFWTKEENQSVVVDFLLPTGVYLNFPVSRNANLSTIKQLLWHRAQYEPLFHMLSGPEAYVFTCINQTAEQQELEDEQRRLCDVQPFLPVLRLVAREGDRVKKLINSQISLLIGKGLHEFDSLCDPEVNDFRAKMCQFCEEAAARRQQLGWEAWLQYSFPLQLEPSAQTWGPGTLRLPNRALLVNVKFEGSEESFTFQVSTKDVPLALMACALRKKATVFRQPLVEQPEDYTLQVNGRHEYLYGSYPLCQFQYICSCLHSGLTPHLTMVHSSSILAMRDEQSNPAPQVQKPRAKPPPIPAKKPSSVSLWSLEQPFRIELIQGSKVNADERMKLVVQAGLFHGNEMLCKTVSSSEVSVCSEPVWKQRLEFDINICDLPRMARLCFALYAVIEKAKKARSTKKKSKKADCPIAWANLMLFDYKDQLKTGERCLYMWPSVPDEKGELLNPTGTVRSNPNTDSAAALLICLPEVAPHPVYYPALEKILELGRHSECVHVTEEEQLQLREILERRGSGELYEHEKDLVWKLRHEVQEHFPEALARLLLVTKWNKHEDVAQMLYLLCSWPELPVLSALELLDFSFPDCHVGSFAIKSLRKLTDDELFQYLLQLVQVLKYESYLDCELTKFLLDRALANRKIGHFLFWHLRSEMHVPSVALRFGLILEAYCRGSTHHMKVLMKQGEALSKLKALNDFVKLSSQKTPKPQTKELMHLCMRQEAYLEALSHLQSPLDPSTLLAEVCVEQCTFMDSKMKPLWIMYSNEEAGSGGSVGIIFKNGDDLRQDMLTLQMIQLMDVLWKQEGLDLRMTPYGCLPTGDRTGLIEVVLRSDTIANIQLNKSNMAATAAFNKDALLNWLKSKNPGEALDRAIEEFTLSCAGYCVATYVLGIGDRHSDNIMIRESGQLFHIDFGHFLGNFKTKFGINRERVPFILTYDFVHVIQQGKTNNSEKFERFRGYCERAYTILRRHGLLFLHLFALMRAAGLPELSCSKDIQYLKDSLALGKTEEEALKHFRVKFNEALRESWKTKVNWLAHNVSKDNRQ
The experiment is described as follows: Inhibition of PI3Kdelta (unknown origin) using PIP2 as substrate incubated for 2 hrs in presence of ATP by Kinase Glo luminescence assay.

Experiment [4] concerns HT-29. In words: Antiproliferative activity against human HT-29 cells with PIK3CA mutation assessed as inhibition of cell growth incubated for 48 to 72 hrs by MTT assay. In kind it is functional, cell-based.
Experiment [5] relates to HCT-15. In words: Antiproliferative activity against human HCT-15 cells with PIK3CA mutation assessed as inhibition of cell growth incubated for 48 to 72 hrs by MTT assay. In kind it is functional, cell-based.
Experiment [6] deals with NCI-H3122. The experiment is described as follows: Antiproliferative activity against human NCI-H3122 cells assessed as inhibition of cell growth incubated for 48 to 72 hrs by MTT assay. In kind it is functional, cell-based.
In experiment [7] the test system is HeLa. The experiment is described as follows: Antiproliferative activity against human HeLa cells assessed as inhibition of cell growth incubated for 48 to 72 hrs by MTT assay. In kind it is functional, cell-based.
Experiment [8] deals with SW-620. In words: Antiproliferative activity against human SW620 cells assessed as inhibition of cell growth incubated for 48 to 72 hrs by MTT assay. In kind it is functional, cell-based.
Experiment [9] has as its system NCI-H446. In words: Antiproliferative activity against PTEN-null human NCI-H446 cells assessed as inhibition of cell growth incubated for 48 to 72 hrs by MTT assay. In kind it is functional, cell-based.

For the compound `Cc1nc2cnc3ccc(-c4cnc5[nH]ccc5c4)cc3c2n1-c1ccc(N2CCOCC2)cc1`, the IC50 in experiment [1] turned out to be 114 nM; in experiment [2], 69.3 nM; in experiment [3], 156 nM; in experiment [4], 1020 nM; in experiment [5], 1360 nM; in experiment [6] it was 1080 nM. Also, the figures for the IC50 in experiment [7], in experiment [8] and in experiment [9] were 940 nM, 930 nM and 1470 nM, respectively.
As for `Cc1nc2cnc3ccc(-c4cnc5[nH]ccc5c4)cc3c2n1-c1ccc(F)nc1`, the IC50 amounted to 76.4 nM in experiment [1]; 41.4 nM in experiment [2]; 55.2 nM in experiment [3]; 1160 nM in [4]; 1290 nM in experiment [5]; 1310 nM in experiment [6]. The figures for the IC50 in [7], in experiment [8] and in experiment [9] were 1920 nM, 970 nM and 2100 nM, respectively.
On to `Cc1nc2cnc3cc(F)c(-c4cnc5[nH]ccc5c4)cc3c2n1-c1ccc(C(C)(C)C#N)cc1`, for which the IC50 turned out to be 45.2 nM in [1]; 19.3 nM in experiment [2]; 28.6 nM in experiment [3]; 910 nM in experiment [4]; 830 nM in experiment [5]; 670 nM in [6]. Moreover, the IC50 in experiment [7] was 510 nM; in experiment [8] it was 1370 nM; in experiment [9], 1650 nM.
On to `Cc1nc2cnc3ccc(-c4cnc5ccccc5c4)cc3c2n1-c1ccc(F)cc1`, for which the half-inhibitory concentration (IC50) worked out at 32.3 nM in experiment [1]; 33.1 nM in [2]; 40.5 nM in [3]; 3250 nM in [4]; 3090 nM in [5]; 5080 nM in experiment [6]. Moreover, the IC50 in [7] came out at 4310 nM; in experiment [8], 2790 nM; in experiment [9], 7130 nM.
As to `Cc1nc2cnc3ccc(-c4ccc(N)cc4)cc3c2n1-c1ccc(F)cc1`, the IC50 in experiment [1] was determined as 121 nM; in experiment [2], 68.1 nM; in experiment [3], 90.3 nM; in experiment [4], 1980 nM; in experiment [5] it was 2320 nM; in experiment [6], 8750 nM. The results for the IC50 in experiment [7], in experiment [8] and in experiment [9] were 3130 nM, 2150 nM and 6970 nM, respectively.
Consider `Cc1nc2cnc3ccc(-c4cnc5[nH]ccc5c4)cc3c2n1-c1ccc(C#N)cc1`, for which the half-maximal inhibitory concentration (IC50) in experiment [1] came out at 123 nM; in experiment [2] it was 62.5 nM; in experiment [3], 96.4 nM; in experiment [4] it was 1320 nM; in [5] it was 1410 nM; in experiment [6], 7730 nM. Moreover, the IC50 in experiment [7] came out at 5680 nM; in [8], 3940 nM; in [9], 9710 nM.
`Cc1nc2cnc3ccc(-c4cnc5[nH]ccc5c4)cc3c2n1Cc1ccccc1`: the IC50 in experiment [1] was determined as 263 nM; in experiment [2], 117 nM; in [3], 106 nM; in [4], 2980 nM; in [5], 3060 nM; in [6] it was 6710 nM. Also, the IC50 in experiment [7] is 2720 nM; in [8], 4160 nM; in experiment [9] it was 7590 nM.
Turning to `Cc1nc2cnc3ccc(-c4cnc5[nH]ccc5c4)cc3c2n1[C@H](C)c1ccccc1`, the IC50 in [1] was 102 nM; in [2], 79.6 nM; in [3], 164 nM; in [4], 1870 nM; in experiment [5] it was 1430 nM; in experiment [6] it was 1960 nM. Also, the IC50 in experiment [7] was determined as 2350 nM; in [8], 1650 nM; in [9], 2780 nM.
In the case of `COC(=O)c1ccc(-c2ccc3ncc4nc(C)n(-c5ccc(F)cc5)c4c3c2)cc1`, the IC50 in [1] was 206 nM; in [2], 251 nM; in experiment [3] it was 336 nM; in experiment [4] it was 18700 nM; in experiment [5] it was > 20000 nM; in experiment [6], > 20000 nM. Also, the IC50 in [7] was 19800 nM; in experiment [8], > 20000 nM; in [9] it was > 20000 nM.
